Reference: ChEMBL document CHEMBL4339208, “6-Bromoindolglyoxylamido derivatives as antimicrobial agents and antibiotic enhancers” (Bioorg Med Chem, 2019)
≈ marks a conversion by molar mass, not a printed value. Calls of active or inactive are those of the source. No cut-off for these calls is given here.

Columns and labels:
Staphylococcus aureus = test: Antibacterial activity against Staphylococcus aureus ATCC 25923 measured after 18 hrs by broth dilution method; assay type: functional; details: ATCC 25923, 18 h
[1] = test system: Staphylococcus intermedius; test: Antibacterial activity against Staphylococcus intermedius 1051997 measured after 18 hrs by broth dilution method; assay type: functional; details: Staphylococcus intermedius, 1051997, 18 h
Escherichia coli = test: Antibacterial activity against Escherichia coli ATCC 25922 measured after 18 hrs by broth dilution method; assay type: functional
Pseudomonas aeruginosa [2] = test: Antibacterial activity against Pseudomonas aeruginosa ATCC 27853 measured after 18 hrs by broth dilution method; assay type: functional
Klebsiella pneumoniae [3] = test: Antibacterial activity against Klebsiella pneumoniae ATCC 700603 measured after 18 hrs by resazurin dye based assay; assay type: functional
Acinetobacter baumannii [4] = test: Antibacterial activity against Acinetobacter baumannii ATCC 19606 measured after 18 hrs by resazurin dye based assay; assay type: functional
Candida albicans [5] = test: Antifungal activity against Candida albicans ATCC 90028 measured after 36 hrs; assay type: functional; details: ATCC 90028, 36 h
Cryptococcus neoformans [6] = test: Antifungal activity against Cryptococcus neoformans ATCC 208821 measured after 36 hrs by resazurin dye based assay; assay type: functional; details: ATCC 208821, 36 h
Klebsiella pneumoniae [7] = test: Antibacterial activity against Klebsiella pneumoniae ATCC 700603 at 32 ug/ml measured after 18 hrs by resazurin dye based assay; assay type: functional, organism-based
Acinetobacter baumannii [8] = test: Antibacterial activity against Acinetobacter baumannii ATCC 19606 at 32 ug/ml measured after 18 hrs by resazurin dye based assay; assay type: functional, organism-based; details: ATCC 19606 = CIP 70.34 = JCM 6841
Candida albicans [9] = test: Antifungal activity against Candida albicans ATCC 90028 at 32 ug/ml measured after 36 hrs; assay type: functional, organism-based
Cryptococcus neoformans [10] = test: Antifungal activity against Cryptococcus neoformans ATCC 208821 at 32 ug/ml measured after 36 hrs by resazurin dye based assay; assay type: functional, organism-based
Pseudomonas aeruginosa [11] = test: Potentiation of doxycycline-induced antibacterial activity against Pseudomonas aeruginosa ATCC 27853 assessed as concentration required to restore 2 ug/ml doxycycline activity measured after 18 hrs; assay type: functional
L6 = test: Cytotoxicity against rat L6 cells measured after 72 hrs by alamar blue assay; assay type: cell-based; details: L6, 72 h
[12] = Cytotoxicity against HEK293 cells measured after 20 hrs by resazurin dye based fluorescence assay; assay type: cell-based, Homo sapiens; details: human, HEK293 cells
Erythrocyte = test: Hemolytic activity against human RBC incubated for 10 mins under shaking condition measured after 1 hr; assay type: ADME, cell-based
[13] = Klebsiella pneumoniae, 700603, 18 h
[14] = ATCC 19606 = CIP 70.34 = JCM 6841, 18 h

Compound | MIC (Staphylococcus aureus) | MIC [1] | MIC (Escherichia coli; ATCC 25922, 18 h) | MIC (Pseudomonas aeruginosa [2]; ATCC 27853, 18 h) | MIC (Klebsiella pneumoniae [3]; [13]) | MIC (Acinetobacter baumannii [4]; [14]) | MIC (Candida albicans [5]) | MIC (Cryptococcus neoformans [6]) | Activity (Klebsiella pneumoniae [7]) | Activity (Acinetobacter baumannii [8]) | Activity (Candida albicans [9]) | Activity (Cryptococcus neoformans [10]) | Activity (Pseudomonas aeruginosa [11]) | IC50 (L6) | CC50 at 20 h [12] | HC10 (Erythrocyte) | MIC (Escherichia coli) | MIC (Pseudomonas aeruginosa [2]) | MIC (Klebsiella pneumoniae [3]) | MIC (Acinetobacter baumannii [4]; ATCC 19606 = CIP 70.34 = JCM 6841)
O=C(NCCCCCCCCCCCCNC(=O)C(=O)c1c[nH]c2cc(Br)ccc12)C(=O)c1c[nH]c2cc(Br)ccc12 | > 200 µM | 100 µM (≈ 70 µg/mL) | > 200 µM | > 200 µM | > 46 µM | > 46 µM | > 46 µM | > 46 µM | inactive | inactive | inactive | inactive | >200 µM | 89.1 µM | > 46 µM |  |  |  |  | 
O=C(NCCCCNC(=O)C(=O)c1c[nH]c2cc(Br)ccc12)C(=O)c1c[nH]c2cc(Br)ccc12 | > 200 µM | > 200 µM | > 200 µM | > 200 µM | > 54 µM | > 54 µM | > 54 µM | > 54 µM | inactive | inactive | inactive | inactive | >200 µM | > 150 µM | > 54 µM |  |  |  |  | 
CN[C@@H]1[C@H](O[C@H]2[C@H](O[C@H]3[C@H](O)[C@@H](O)[C@H](N=C(N)N)[C@@H](O)[C@@H]3N=C(N)N)O[C@@H](C)[C@]2(O)C=O)O[C@@H](CO)[C@H](O)[C@H]1O [STREPTOMYCIN] | 21.5 µM (≈ 12.5 µg/mL) | 10.7 µM (≈ 6.22 µg/mL) | 21.5 µM (≈ 12.5 µg/mL) | 21.5 µM (≈ 12.5 µg/mL) |  |  |  |  |  |  |  |  |  |  |  |  |  |  |  | 
CC[C@H](C)[C@H](NC(=O)CN)C(=O)NCC(=O)N[C@@H](C)C(=O)N[C@H](C(=O)N[C@@H](CC(C)C)C(=O)N[C@@H](CCCCN)C(=O)N[C@H](C(=O)N[C@@H](CC(C)C)C(=O)N[C@H](C(=O)N[C@H](C(=O)NCC(=O)N[C@@H](CC(C)C)C(=O)N1CCC[C@H]1C(=O)N[C@@H](C)C(=O)N[C@@H](CC(C)C)C(=O)N[C@H](C(=O)N[C@@H](CO)C(=O)N[C@@H](Cc1c[nH]c2ccccc12)C(=O)N[C@H](C(=O)N[C@@H](CCCCN)C(=O)N[C@@H](CCCNC(=N)N)C(=O)N[C@@H](CCCCN)C(=O)N[C@@H](CCCNC(=N)N)C(=O)N[C@@H](CCC(N)=O)C(=O)N[C@@H](CCC(N)=O)C(N)=O)[C@@H](C)CC)[C@@H](C)CC)[C@@H](C)O)[C@@H](C)O)C(C)C)C(C)C [MELITTIN] |  |  |  |  |  |  |  |  |  |  |  |  |  |  |  | 2.7 µg/mL |  |  |  | 
O=C(NCCCNCCCCCCCCCCNCCCNC(=O)C(=O)c1c[nH]c2cc(Br)ccc12)C(=O)c1c[nH]c2cc(Br)ccc12.O=C(O)C(F)(F)F.O=C(O)C(F)(F)F | 12.3 µM |  | 24.6 µM | 24.6 µM | 31.5 µM | 31.5 µM | 1.97 µM | < 0.25 µM |  |  |  |  | 6.16 µM | 12.4 µM | 6.03 µM | 7.88 µM |  |  |  | 
OC(Cn1cncn1)(Cn1cncn1)c1ccc(F)cc1F [FLUCONAZOLE] |  |  |  |  |  |  | 0.125 µg/mL | 8 µg/mL |  |  |  |  |  |  |  |  |  |  |  | 
COLISTIN |  |  |  |  |  |  |  |  |  |  |  |  |  |  |  |  | 1 µM | 2 µM | 0.25 µg/mL | 0.25 µg/mL
O=C(NCCCNCCCCCCCCCCCCNCCCNC(=O)C(=O)c1c[nH]c2cc(Br)ccc12)C(=O)c1c[nH]c2cc(Br)ccc12.O=C(O)C(F)(F)F.O=C(O)C(F)(F)F | > 200 µM |  | > 200 µM | > 200 µM | > 32 µM | > 32 µM | 7.67 µM | 7.67 µM | inactive | inactive |  |  | >200 µM | 1.6 µM | 9.72 µM | 2.18 µM |  |  |  | 
O=C(NCCCNCCCCCCNCCCNC(=O)C(=O)c1c[nH]c2cc(Br)ccc12)C(=O)c1c[nH]c2cc(Br)ccc12.O=C(O)C(F)(F)F.O=C(O)C(F)(F)F | 6.5 µM |  | 52.2 µM | > 200 µM | > 33.4 µM | > 33.4 µM | 8.35 µM | 33.4 µM | inactive | inactive |  |  | 6.52 µM | 5.7 µM | 17.1 µM | 18 µM |  |  |  | 
